Results taken from patent US12410185B2, “Compounds targeting mutant calreticulin” (MYELOPRO DIAGNOSTICS AND RESEARCH GmbH, priority 2018, dated 2025).
Like-named read-outs stand apart in the source and are kept apart here. Blank lines part the entries; values can stand above or below the molecule they belong to.

How the values were obtained:
[1] = test system: CALR mutant cell lines; experiment: cells; conditions: for IC50: read-out: IC50 in mutant cell lines
Procedure: (§1) Ba/F3 and UT-7-TPO were plated 5.000 cells/well and 16.000 cells/well into 96-well plates with the desirable concentrations of compounds or cytokines added to a total volume of 100 ul. 72 hours later, the CellTiter-Glo luminescent Cell Viability Assay (Promega) was used to determine the cell viability. The luminescent signal was detected by a VICTOR Multilabel Plate Reader (PerkinElmer). Dose response data was analyzed by Graphpad Prism 7.0.
(§2) To further explore the chemical space of the compound, a few hematoxylin analogues were also tested (FIGS. 15 to 17). […] The compounds Protosappanin B (A-4) and RJ002 (B-2) were also tested. […] As a comparison, the clinically used chemotherapeutic drugs hydroxyurea and ruxolitinib were also tested in the cell models.

[2] = test system: CALR wild-type cell line; experiment: 72 h dose response of hematoxylin, analogues and control compounds; type: cell-based; conditions: 72 h assay
Procedure: as §1, §2

[3] = solubility in 10 mM stock solution; type: physicochemical; conditions: compounds dissolved in DMSO
Procedure: All tested compounds were dissolved in DMSO.
(§3) These included HEM8 (B-18), HEM11 (B-19), HEM30 (B-20), HEM36 (B-26), HEM44 (B-34) and HEM46 (B-36) which were used at 1/10 of the concentration (1 uM for Ba/F3 and 3 uM for UT-7).

[4] = test system: Ba/F3 cells; experiment: cytotoxicity screen of further hematoxylin derivatives; type: cell-based, mouse; conditions: 10 uM (1 uM for compounds insoluble in 10 mM stock)
Procedure: (§4) Cytotoxicity screens were performed essentially as described in Example 1.
as §3

[5] = test system: UT-7 cells; experiment: as above; type: cell-based; conditions: 30 uM (3 uM for compounds insoluble in 10 mM stock)
Procedure: as §4, §3

[6] = test system: WT cell line (UT-7 cells); experiment: IC50 of further hematoxylin derivatives (Table 3); type: cell-based; conditions: Homo sapiens
Procedure: as §4

[7] = test system: mutant cell line (UT-7 cells); experiment: IC50 of further hematoxylin derivatives (Table 3); type: cell-based; conditions: Homo sapiens
Procedure: as §4

[8] = UT7, UT-7 cells, read-out: IC50 WT cell line
[9] = UT7, UT-7 cells, read-out: IC50 mutant cell line

IC50 ([1]; 72 h): 1.9 µM
Molecule: Oc1ccc2c(c1)OC[C@]1(O)Cc3cc(O)c(O)cc3[C@H]21 [Brazilin (A-2), Brazilin]
cytotoxic selectivity for mutant vs wild-type cell lines [1]: comparable cytotoxic selectivity
IC50 ([2]; read-out: IC50 in wild-type cell line): 6.2 µM

solubility in a 10 mM stock solution [3]: insoluble in a 10 mM stock solution
Molecule: O=C(Oc1cc2c(cc1OC(=O)c1cccc(N3C(=O)/C(=C/c4cccc(F)c4)SC3=S)c1)[C@@H]1c3ccc(OC(=O)c4cccc(N5C(=O)/C(=C/c6cccc(F)c6)SC5=S)c4)c(OC(=O)c4cccc(N5C(=O)/C(=C/c6cccc(F)c6)SC5=S)c4)c3OC[C@]1(O)C2)c1cccc(N2C(=O)/C(=C/c3cccc(F)c3)SC2=S)c1 [HEM8 (B-18)]

solubility in a 10 mM stock solution [3]: insoluble in a 10 mM stock solution
Molecule: O=C(CCN1C(=O)/C(=C/c2ccc(Cl)cc2)SC1=S)Oc1cc2c(cc1OC(=O)CCN1C(=O)/C(=C/c3ccc(Cl)cc3)SC1=S)[C@@H]1c3ccc(OC(=O)CCN4C(=O)/C(=C/c5ccc(Cl)cc5)SC4=S)c(OC(=O)CCN4C(=O)/C(=C/c5ccc(Cl)cc5)SC4=S)c3OC[C@]1(O)C2 [HEM11 (B-19)]

solubility in a 10 mM stock solution [3]: insoluble in a 10 mM stock solution
Molecule: O=C(Oc1cc2c(cc1OC(=O)c1ccc(/C=C3\SC(=S)N(c4ccc(F)cc4)C3=O)cc1)[C@@H]1c3ccc(OC(=O)c4ccc(/C=C5\SC(=S)N(c6ccc(F)cc6)C5=O)cc4)c(OC(=O)c4ccc(/C=C5\SC(=S)N(c6ccc(F)cc6)C5=O)cc4)c3OC[C@]1(O)C2)c1ccc(/C=C2\SC(=S)N(c3ccc(F)cc3)C2=O)cc1 [HEM30 (B-20)]
selectivity and potency in cytotoxicity screen [4]: Best results in terms of selectivity and potency

Molecule: CN1C(=O)/C(=C/c2ccc(C(=O)Oc3cc4c(cc3OC(=O)c3ccc(/C=C5\SC(=S)N(C)C5=O)cc3)[C@@H]3c5ccc(OC(=O)c6ccc(/C=C7\SC(=S)N(C)C7=O)cc6)c(OC(=O)c6ccc(/C=C7\SC(=S)N(C)C7=O)cc6)c5OC[C@]3(O)C4)cc2)SC1=S [HEM32 (B-22)]
selectivity and potency in cytotoxicity screen [5]: Best results in terms of selectivity and potency
IC50 [6, 8]: 18.8 µM
IC50 [7, 9]: 16.1 µM

solubility in a 10 mM stock solution [3]: insoluble in a 10 mM stock solution
Molecule: O=C(Oc1cc2c(cc1OC(=O)c1ccc(Cl)cc1)[C@@H]1c3ccc(OC(=O)c4ccc(Cl)cc4)c(OC(=O)c4ccc(Cl)cc4)c3OC[C@]1(OC(=O)c1ccc(Cl)cc1)C2)c1ccc(Cl)cc1 [HEM36 (B-26)]

Molecule: CC(C)C(=O)Oc1cc2c(cc1OC(=O)C(C)C)[C@@H]1c3ccc(OC(=O)C(C)C)c(OC(=O)C(C)C)c3OC[C@]1(O)C2 [HEM40 (B-30)]
selectivity and potency in cytotoxicity screen [5]: Best results in terms of selectivity and potency
IC50 [6, 8]: 14.5 µM
IC50 [7, 9]: 12 µM

Molecule: CCC(=O)Oc1cc2c(cc1OC(=O)CC)[C@@H]1c3ccc(OC(=O)CC)c(OC(=O)CC)c3OC[C@]1(O)C2 [HEM42 (B-32)]
selectivity and potency in cytotoxicity screen [5]: Best results in terms of selectivity and potency
IC50 [6, 8]: 26.2 µM
IC50 [7, 9]: 20.8 µM

solubility in a 10 mM stock solution [3]: insoluble in a 10 mM stock solution
Molecule: O=C(Oc1cc2c(cc1OC(=O)C(Cl)Cl)[C@@H]1c3ccc(OC(=O)C(Cl)Cl)c(OC(=O)C(Cl)Cl)c3OC[C@]1(O)C2)C(Cl)Cl [HEM44 (B-34)]

solubility in a 10 mM stock solution [3]: insoluble in a 10 mM stock solution
Molecule: CC(C)CC(=O)Oc1cc2c(cc1OC(=O)CC(C)C)[C@@H]1c3ccc(OC(=O)CC(C)C)c(OC(=O)CC(C)C)c3OC[C@]1(O)C2 [HEM46 (B-36)]

Molecule: CCCC(=O)Oc1cc2c(cc1OC(=O)CCC)[C@@H]1c3ccc(OC(=O)CCC)c(OC(=O)CCC)c3OC[C@]1(O)C2 [HEM47 (B-37)]
selectivity and potency in cytotoxicity screen [5]: Best results in terms of selectivity and potency
IC50 ([6]; UT7, read-out: IC50 WT cell line): 14.7 µM
IC50 ([7]; UT7, read-out: IC50 mutant cell line): 12.4 µM

Molecule: CC(C)(C)C(=O)Oc1cc2c(cc1OC(=O)C(C)(C)C)[C@@H]1c3ccc(OC(=O)C(C)(C)C)c(OC(=O)C(C)(C)C)c3OC[C@]1(O)C2 [HEM48 (B-38)]
selectivity and potency in cytotoxicity screen [4]: Best results in terms of selectivity and potency

Molecule: NC(=O)NO [Hydroxyurea, reference compound]
cytotoxic selectivity for mutant vs wild-type cell lines [1]: did not show any selective killing effect

Molecule: CC(=O)Oc1cc2c(cc1OC(C)=O)[C@@H]1c3ccc(OC(C)=O)c(OC(C)=O)c3OC[C@]1(OC(C)=O)C2 [L-HEM1 (B-1)]
cytotoxic selectivity for mutant vs wild-type cell lines [1]: compromise both potency and selectivity

Molecule: COc1cc2c(cc1OC)C1c3ccc(OC)c(OC)c3OCC1(O)C2 (centres unmarked) [NSC7251 (A-5)]
cytotoxic selectivity for mutant vs wild-type cell lines [1]: compromise both potency and selectivity

IC50 ([1]; 72 h): 0.195 µM
IC50 reduction in the mutant cell lines compared to wild-type cells ([1]; 72 h assay): about 2 fold
Molecule: N#CC[C@H](C1CCCC1)n1cc(-c2ncnc3[nH]ccc23)cn1 [ruxolitinib, Ruxolitinib, reference compound]
cytotoxic selectivity for mutant vs wild-type cell lines [1]: mild selective effect
IC50 ([2]; read-out: IC50 in wild-type cells): 0.4 µM

IC50 ([1]; 72 h assay): 7.5 µM
Molecule: Hematein [Hematein (A-3)]
cytotoxic selectivity for mutant vs wild-type cell lines [1]: retained the cytotoxic selectivity
